{"source": "patent US20230085307A1", "about": "“PYRIDAZINONE COMPOUND AND HERBICIDE” (NISSAN CHEMICAL CORPORATION, priority 2019, published 2023)", "key": {"velvetleaf [1]": {"system": "velvetleaf", "assay": "Test Example 4: herbicidal effect by soil treatment (Table 19, symbol M)", "format": "in vivo, velvetleaf (Abutilon theophrasti)", "conditions": "AAH 80 g/ha", "procedure,_shortened": "(§1)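 Soil-surface application: an emulsion agent diluted with water to the predetermined dose is sprayed uniformly over seeds lying under roughly 1.5 cm of sterilized diluvial soil. Boxes stay in a greenhouse at 25° C. to 30° C. Three weeks later, each species is graded on previously defined criteria.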"}, "windgrass [2]": {"system": "windgrass", "assay": "Test Example 4: herbicidal effect by soil treatment (Table 19, symbol L)", "format": "in vivo, windgrass (Apera spica-venti)", "conditions": "AAH 80 g/ha", "procedure,_shortened": "as §1"}, "velvetleaf [3]": {"system": "velvetleaf", "assay": "Test Example 5: herbicidal effect by foliage application, plastic box (Table 20, symbol M)", "format": "in vivo, velvetleaf (Abutilon theophrasti)", "conditions": "foliage application, AAH 80 g/ha, three weeks after application", "procedure,_shortened": "(§2)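 Sow seeds spot-wise in sterilized diluvial soil; cover with ~1.5 cm soil. Grow 14 days in greenhouse, 25° C. to 30° C. Spray foliage with emulsion diluted to predetermined amount. Rate effect after 3 weeks.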"}, "lambsquarters [4]": {"system": "lambsquarters", "assay": "Test Example 4: herbicidal effect by soil treatment (Table 19, symbol O)", "format": "in vivo, lambsquarters (Chenopodium album)", "conditions": "AAH 80 g/ha", "procedure,_shortened": "as §1"}, "barnyard grass [5]": {"system": "barnyard grass", "assay": "Test Example 5: herbicidal effect by foliage application, plastic box (Table 20, symbol H)", "format": "in vivo, barnyard grass (Echinochloa crus-galli)", "conditions": "foliage application, AAH 80 g/ha, three weeks after application", "procedure,_shortened": "as §2"}, "Chinese sprangletop": {"system": "Chinese sprangletop", "assay": "Test Example 3: herbicidal effect by foliage application, Wagner pot (Table 18, symbol D)", "format": "in vivo, chinese sprangletop (Leptochloa chinensis)", "conditions": "80 g/ha", "procedure,_shortened": "(§3)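 Plants were sown in alluvial soil held under 0.1–0.5 cm standing water and grown 14 days in a greenhouse at 25–30 °C. An emulsifiable formulation, water-diluted to the set dose, was then sprayed onto the foliage, and effects were scored three weeks later using previously defined criteria.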"}, "blackgrass [6]": {"system": "blackgrass", "assay": "Test Example 5: herbicidal effect by foliage application, plastic box (Table 20, symbol J)", "format": "in vivo, blackgrass (Alopecurus myosuroides)", "conditions": "foliage application, AAH 80 g/ha, three weeks after application", "procedure,_shortened": "as §2"}, "lambsquarters [7]": {"system": "lambsquarters", "assay": "Test Example 5: herbicidal effect by foliage application, plastic box (Table 20, symbol O)", "format": "in vivo, lambsquarters (Chenopodium album)", "conditions": "foliage application, AAH 80 g/ha, three weeks after application", "procedure,_shortened": "as §2"}, "southern crabgrass [8]": {"system": "southern crabgrass", "assay": "Test Example 5: herbicidal effect by foliage application, plastic box (Table 20, symbol F)", "format": "in vivo, southern crabgrass (Digitaria ciliaris)", "conditions": "foliage application, AAH 80 g/ha, three weeks after application", "procedure,_shortened": "as §2"}, "chickweed [9]": {"system": "chickweed", "assay": "Test Example 5: herbicidal effect by foliage application, plastic box (Table 20, symbol P)", "format": "in vivo, common chickweed (Stellaria media)", "conditions": "foliage application, AAH 80 g/ha, three weeks after application", "procedure,_shortened": "as §2"}, "Italian ryegrass [10]": {"system": "Italian ryegrass", "assay": "Test Example 5: herbicidal effect by foliage application, plastic box (Table 20, symbol K)", "format": "in vivo, Italian ryegrass (Lolium multiflorum)", "conditions": "foliage application, AAH 80 g/ha, three weeks after application", "procedure,_shortened": "as §2"}, "chickweed [11]": {"system": "chickweed", "assay": "Test Example 4: herbicidal effect by soil treatment (Table 19, symbol P)", "format": "in vivo, common chickweed (Stellaria media)", "conditions": "AAH 80 g/ha", "procedure,_shortened": "as §1"}, "green foxtail [12]": {"system": "green foxtail", "assay": "Test Example 5: herbicidal effect by foliage application, plastic box (Table 20, symbol G)", "format": "in vivo, green foxtail (Setaria viridis)", "conditions": "foliage application, AAH 80 g/ha, three weeks after application", "procedure,_shortened": "as §2"}, "persian speedwell [13]": {"system": "persian speedwell", "assay": "Test Example 4: herbicidal effect by soil treatment (Table 19, symbol R)", "format": "in vivo, Persian speedwell (Veronica persica)", "conditions": "AAH 80 g/ha", "procedure,_shortened": "as §1"}, "persian speedwell [14]": {"system": "persian speedwell", "assay": "Test Example 5: herbicidal effect by foliage application, plastic box (Table 20, symbol R)", "format": "in vivo, Persian speedwell (Veronica persica)", "conditions": "foliage application, AAH 80 g/ha, three weeks after application", "procedure,_shortened": "as §2"}, "Italian ryegrass [15]": {"system": "Italian ryegrass", "assay": "Test Example 4: herbicidal effect by soil treatment (Table 19, symbol K)", "format": "in vivo, Italian ryegrass (Lolium multiflorum)", "conditions": "AAH 80 g/ha", "procedure,_shortened": "as §1"}, "barnyard grass [16]": {"system": "barnyard grass", "assay": "Test Example 4: herbicidal effect by soil treatment (Table 19, symbol H)", "format": "in vivo, barnyard grass (Echinochloa crus-galli)", "conditions": "AAH 80 g/ha", "procedure,_shortened": "as §1"}, "blackgrass [17]": {"system": "blackgrass", "assay": "Test Example 4: herbicidal effect by soil treatment (Table 19, symbol J)", "format": "in vivo, blackgrass (Alopecurus myosuroides)", "conditions": "AAH 80 g/ha", "procedure,_shortened": "as §1"}, "green foxtail [18]": {"system": "green foxtail", "assay": "Test Example 4: herbicidal effect by soil treatment (Table 19, symbol G)", "format": "in vivo, green foxtail (Setaria viridis)", "conditions": "AAH 80 g/ha", "procedure,_shortened": "as §1"}, "rice flat sedge": {"system": "rice flat sedge", "assay": "Test Example 3: herbicidal effect by foliage application, Wagner pot (Table 18, symbol E)", "format": "in vivo, rice flat sedge (Cyperus iria)", "conditions": "80 g/ha", "procedure,_shortened": "as §3"}, "redroot pigweed [19]": {"system": "redroot pigweed", "assay": "Test Example 5: herbicidal effect by foliage application, plastic box (Table 20, symbol N)", "format": "in vivo, redroot pigweed (Amaranthus retroflexus)", "conditions": "foliage application, AAH 80 g/ha, three weeks after application", "procedure,_shortened": "as §2"}, "false cleavers": {"system": "false cleavers", "assay": "Test Example 5: herbicidal effect by foliage application, plastic box (Table 20, symbol Q)", "format": "in vivo, false cleavers (Galium spurium)", "conditions": "foliage application, AAH 80 g/ha, three weeks after application", "procedure,_shortened": "as §2"}, "southern crabgrass [20]": {"system": "southern crabgrass", "assay": "Test Example 4: herbicidal effect by soil treatment (Table 19, symbol F)", "format": "in vivo, southern crabgrass (Digitaria ciliaris)", "conditions": "AAH 80 g/ha", "procedure,_shortened": "as §1"}, "redroot pigweed [21]": {"system": "redroot pigweed", "assay": "Test Example 4: herbicidal effect by soil treatment (Table 19, symbol N)", "format": "in vivo, redroot pigweed (Amaranthus retroflexus)", "conditions": "AAH 80 g/ha", "procedure,_shortened": "as §1"}, "barnyard grass [22]": {"system": "barnyard grass", "assay": "Test Example 3: herbicidal effect by foliage application, Wagner pot (Table 18, symbol H)", "format": "in vivo, barnyard grass (Echinochloa crus-galli)", "conditions": "80 g/ha", "procedure,_shortened": "as §3"}, "wild oat [23]": {"system": "wild oat", "assay": "Test Example 5: herbicidal effect by foliage application, plastic box (Table 20, symbol I)", "format": "in vivo, wild oat (Avena fatua)", "conditions": "foliage application, AAH 80 g/ha, three weeks after application", "procedure,_shortened": "as §2"}, "wild oat [24]": {"system": "wild oat", "assay": "Test Example 4: herbicidal effect by soil treatment (Table 19, symbol I)", "format": "in vivo, wild oat (Avena fatua)", "conditions": "AAH 80 g/ha", "procedure,_shortened": "as §1"}, "windgrass [25]": {"system": "windgrass", "assay": "Test Example 5: herbicidal effect by foliage application, plastic box (Table 20, symbol L)", "format": "in vivo, windgrass (Apera spica-venti)", "conditions": "foliage application, AAH 80 g/ha, three weeks after application", "procedure,_shortened": "as §2"}}}
{"compound": "CCCC(=O)Oc1c(OC)nn(C)c(=O)c1-c1c(-c2ccc(OC)c(OC)c2)sc2ccccc12", "note": "[1-183]", "values": [{"measurement": "M: velvetleaf, herbicidal effect rating", "setting": "velvetleaf [1]", "result": "0 (Herbicidal rate of 5% or less (almost no effect))"}, {"measurement": "L: windgrass, herbicidal effect rating", "setting": "windgrass [2]", "result": "0 (Herbicidal rate of 5% or less (almost no effect))"}, {"measurement": "M: velvetleaf, herbicidal effect", "setting": "velvetleaf [3]", "result": "1 (Herbicidal rate of 5% or more and less than 20%)"}, {"measurement": "O: lambsquarters, herbicidal effect rating", "setting": "lambsquarters [4]", "result": "0 (Herbicidal rate of 5% or less (almost no effect))"}, {"measurement": "H: barnyard grass, herbicidal effect", "setting": "barnyard grass [5]", "result": "4 (Herbicidal rate of 70% or more and less than 90%)"}, {"measurement": "herbicidal effect on D (Chinese sprangletop), rating 0-5", "setting": "Chinese sprangletop", "result": "2 (Herbicidal rate of 20% or more and less than 40%)"}, {"measurement": "J: blackgrass, herbicidal effect", "setting": "blackgrass [6]", "result": "0 (Herbicidal rate of 5% or less (almost no effect))"}, {"measurement": "O: lambsquarters, herbicidal effect", "setting": "lambsquarters [7]", "result": "3 (Herbicidal rate of 40% or more and less than 70%)"}, {"measurement": "F: southern crabgrass, herbicidal effect", "setting": "southern crabgrass [8]", "result": "1 (Herbicidal rate of 5% or more and less than 20%)"}, {"measurement": "P: chickweed, herbicidal effect", "setting": "chickweed [9]", "result": "4 (Herbicidal rate of 70% or more and less than 90%)"}, {"measurement": "K: Italian ryegrass, herbicidal effect", "setting": "Italian ryegrass [10]", "result": "1 (Herbicidal rate of 5% or more and less than 20%)"}, {"measurement": "P: chickweed, herbicidal effect rating", "setting": "chickweed [11]", "result": "3 (Herbicidal rate of 40% or more and less than 70%)"}, {"measurement": "G: green foxtail, herbicidal effect", "setting": "green foxtail [12]", "result": "4 (Herbicidal rate of 70% or more and less than 90%)"}, {"measurement": "R: persian speedwell, herbicidal effect rating", "setting": "persian speedwell [13]", "result": "4 (Herbicidal rate of 70% or more and less than 90%)"}, {"measurement": "R: persian speedwell, herbicidal effect", "setting": "persian speedwell [14]", "result": "5 (Herbicidal rate of 90% or more (almost completely withered))"}, {"measurement": "K: Italian ryegrass, herbicidal effect rating", "setting": "Italian ryegrass [15]", "result": "0 (Herbicidal rate of 5% or less (almost no effect))"}, {"measurement": "H: barnyard grass, herbicidal effect rating", "setting": "barnyard grass [16]", "result": "0 (Herbicidal rate of 5% or less (almost no effect))"}, {"measurement": "J: blackgrass, herbicidal effect rating", "setting": "blackgrass [17]", "result": "0 (Herbicidal rate of 5% or less (almost no effect))"}, {"measurement": "G: green foxtail, herbicidal effect rating", "setting": "green foxtail [18]", "result": "0 (Herbicidal rate of 5% or less (almost no effect))"}, {"measurement": "herbicidal effect on E (rice flat sedge), rating 0-5", "setting": "rice flat sedge", "result": "0 (Herbicidal rate of 5% or less (almost no effect))"}, {"measurement": "N: redroot pigweed, herbicidal effect", "setting": "redroot pigweed [19]", "result": "3 (Herbicidal rate of 40% or more and less than 70%)"}, {"measurement": "Q: false cleavers, herbicidal effect", "setting": "false cleavers", "result": "2 (Herbicidal rate of 20% or more and less than 40%)"}, {"measurement": "F: southern crabgrass, herbicidal effect rating", "setting": "southern crabgrass [20]", "result": "0 (Herbicidal rate of 5% or less (almost no effect))"}, {"measurement": "N: redroot pigweed, herbicidal effect rating", "setting": "redroot pigweed [21]", "result": "0 (Herbicidal rate of 5% or less (almost no effect))"}, {"measurement": "herbicidal effect on H (barnyard grass), rating 0-5", "setting": "barnyard grass [22]", "result": "3 (Herbicidal rate of 40% or more and less than 70%)"}, {"measurement": "I: wild oat, herbicidal effect", "setting": "wild oat [23]", "result": "0 (Herbicidal rate of 5% or less (almost no effect))"}, {"measurement": "I: wild oat, herbicidal effect rating", "setting": "wild oat [24]", "result": "0 (Herbicidal rate of 5% or less (almost no effect))"}, {"measurement": "L: windgrass, herbicidal effect", "setting": "windgrass [25]", "result": "0 (Herbicidal rate of 5% or less (almost no effect))"}]}
